Test results from patent US5760001A, “Cytokine restraining agents and methods of use in pathologies and conditions associated with altered cytokine levels” (Trega Biosciences, Inc., priority 1995, dated 1998).
Several values for one entry are separate records, joined by “and”; a condition that tells them apart may be missing. Equal entries are not always repeated. Square brackets hold non-standard residues; d marks the D form. Peptide text beside a SMILES is read from it.

Key:
TNF-α [1] = assay: Reduction of LPS-induced TNF levels in mice (IP dosing); type: in vivo; conditions: 150 μg/mouse IP before LPS 5 mg/kg IP; vs untreated control mice
Procedure: Balb/c female mice weighing approximately 20 g were placed into two groups, a control group and a treated group. Five mg/kg of LPS in 0.9% saline was administered by intraperitoneal (IP) injection into the control mice. Mice in the treated group were first injected IP with 30 μg EX-2 or 150 μg EX-3 in saline, then, one mn after EX-2 or EX-3 was administered, the mice received LPS as described for the control group.
Blood samples were collected from the orbital sinus of treated and control mice at various times up to four hr after LPS was administered. The plasma was separated by centrifugation at 3000×g for 5 min, then diluted with four volumes of 1× phosphate buffer saline (pH 7.4) containing 1% bovine serum albumin. A 100 μl sample of serum was assayed by ELISA for TNF-α (Genzyme; Cambridge Mass.).
The mean (±SEM) TNF-α level in six mice from each group was determined and the percent reduction in TNF levels was calculated.

adult female Balb/c mice [2] = assay: Carageenan-induced paw swelling; type: in vivo; conditions: 1 μg/mouse; measured at the 2 hr time point
Procedure: Carageenan-induced paw swelling was induced using a modification of the methods of Hiltz and Lipton, Peptides 11:979-982 (1990); Vinegar et al., Fed. Proc. 46:118-1.26 (1987); and Vinegar et al., J. Pharmacol. Expt. Therap. 166:96-103 (1969), each of which is incorporated herein by reference. Briefly, adult female Balb/c mice were anesthetized by IP injection of 7 mg/kg ketoamine and 0.6 mg/kg rompun. Foot pad thickness was measured using a spring loaded micrometer (Swiss Precision Instruments). Foot pad thickness was expressed in units of 1/100 inch. After baseline measurements were obtained, mice were injected into a hind foot pad with either 0.2 ml physiologic saline (control) or varying doses of EX-2 or EX-3 in 0.2 ml saline (treated). The first injection was followed immediately by injection of 0.02 ml of 0.15% κ-carageenan (Sigma Chemical Co.; St. Louis, Mo.).
Hind foot pad thickness was measured hourly for six hr, the change in thickness was determined and the percent reduction in swelling due to treatment with EX-2 was calculated.

adult female Balb/c mice [3] = assay: LPS-induced lethality (IP dosing); type: in vivo; conditions: 11 × 300 μg/mouse IP (3.3 mg), every 4 hr; 0.6 mg LPS; vs control mice
Procedure: These experiments were performed based on information reported by Rivier et al., Endocrinology 125:2800-2805 (1989), which is incorporated herein by reference. Adult female Balb/c mice were provided food and water ad libitum. Mice were injected IP every four hr for 40 hr with 30 to 300 μg EX-2, EX-3 or EX-4 in 0.2 ml saline (treated group) or with 0.2 ml saline, alone (control group) (10 mice per group). Immediately following the first injection, 0.6 mg LPS endotoxin in 0.2 ml saline was administered to each mouse. Following LPS injection, EX-2 or saline was administered to the treated mice or the control mice, respectively, every 4 hr for 36 hr.

female Balb/c mice = assay: Arachidonic acid-induced ear swelling; type: in vivo; conditions: 100 μg/mouse IP 30 min prior to AA; 60 min after AA application
Procedure: Experiments were performed using female Balb/c mice weighing 18-23 grams. Saline or 100 μg EX-2 or EX-3 was administered IP, 30 min prior to topical application of arachidonic acid (AA). A 10 μl pipet was used to apply 10 μl AA solution (100 mg/ml ethanol; Calbiochem-Novabiochem; San Diego Calif.) to the inner and outer surfaces of the right ear of each mouse. Ten μl ethanol, alone, was applied to the inner and outer surface of the left ear of each mouse.
Ear thickness was measured with a hand-held spring loaded caliper immediately before and 60 min after AA application. Increase in ear thickness was calculated by subtracting the change observed in the control ear from the change observed in AA-treated ear. The value for each group (saline and control) is the average of the swelling observed in the individual mice in each group. The percent reduction of swelling is based on the swelling observed in the saline control group.

Male Shelton rabbits = assay: Morphine-induced respiratory depression; type: in vivo; conditions: 10 + 20 + 20 μg/kg/rabbit iv; at end of experiment (80 min)
Procedure: Male Shelton rabbits (3-4 kg) were restrained and fitted around the thorax, just behind the front limbs, with a respiration transducer (Model F-RCT; Grass Instruments; Quincy Mass.). The transducer was connected to a grass polygraph via an EKG cable. An intravenous line was established for drug administration by cannulating the marginal ear vein using a 25G butterfly needle.
Rabbit breathing was allowed to stabilize, then. morphine sulfate (2 mg/kg in 0.5 ml saline) was administered by intravenous (iv) injection and respiratory rate and depth were monitored for 10 min. A second dose of morphine was administered, then, after 10 min, EX-2 or EX-3 (10 μg/kg in 0.5 ml saline) was administered, iv, and rabbits were monitored for 20 min. Two additional doses of EX-2 or EX-3 (20 μg/kg in 1.0 ml saline) were administered at 20 min intervals, i.e., 40 min and 60 min after the first morphine injection.
Results were calculated as the percent change from baseline values and are expressed as the difference of the mean value of the treated group minus the mean value of the control group at the end of the experiment (80 min).

TNF-α [4] = assay: LPS-induced TNF-α levels, oral (gavage) dosing; type: in vivo, mice
Procedure: The ability of orally administered cytokine restraining agents to reduce LPS-induced TNF-α levels also was examined. Balb/c female mice (20 g) were administered 150 μg or 300 μg EX-2, EX-3, EX-5 or EX-6 in 100 μl saline by gavage. Control mice received 100 μl saline, alone. One mn later, 0.1 mg LPS was administered by IP injection. Samples were collected and TNF-α levels were determined as described in Example III, above.
The mean TNF-α levels in the mice from each group (n=9-20) was determined and the percent reduction in TNF-α levels was calculated.

adult female Balb/c mice [5] = assay: LPS-induced lethality, oral (gavage) dosing; type: in vivo; conditions: control mice 0%
Procedure: The LPS-induced lethality studies were performed based on information reported by Rivier et al., supra, 1989. Adult female Balb/c mice were provided food and water ad libitum. Mice were administered 150 μg or 300 μg EX-2, EX-3, EX-5 or EX-6 in 100 μl saline by gavage every 4 hr for 40 hr (total doses of 1.65 mg and 3.3 mg, respectively). Control mice received 100 μl saline, alone. Immediately following the first dose of cytokines restraining agent or saline, 0.6 mg LPS in 0.2 ml saline was administered by IP injection.

[6] = 300 μg by gavage before 0.1 mg LPS IP

| Compound | Reduction in TNF levels (TNF-α [1]) [%] | Inhibition of LPS-induced Lethality (increase in survival) (adult female Balb/c mice [3]) [%] | percent reduction in TNF-α levels (TNF-α [4]; [6]) [%] | other results |
| --- | --- | --- | --- | --- |
| CC(=O)N[C@H](C(=O)N[C@@H](CCC(N)=O)C(=O)N[C@@H](Cc1c[nH]cn1)C(=O)N[C@H](Cc1ccccc1)C(=O)N[C@@H](CCCNC(=N)N)C(=O)N[C@H](Cc1c[nH]c2ccccc12)C(=O)NCC(N)=O)C1CCCCC1 [EX-3, Ac-(cyclohexyl)Gly-Gln-His-(D)Phe-Arg-(D)Trp-Gly-NH2] | 56 | 86 | 40 | Reduction in Carageenan-induced Paw Swelling (adult female Balb/c mice [2]): 49%; Reduction in arachidonic acid-induced Ear Swelling (female Balb/c mice): 62%; Reduction in Morphine-induced Respiratory Depression (Male Shelton rabbits): 65%; percent reduction in TNF-α levels (TNF-α [4]; 150 μg by gavage before 0.1 mg LPS IP): 49% |
| CC(=O)N[C@H](Cc1ccccc1)C(=O)N[C@@H](CCCNC(=N)N)C(=O)N[C@H](Cc1c[nH]c2ccccc12)C(N)=O [EX-4, Ac-(D)Phe-Arg-(D)Trp-NH2] | 53 | 75 |  |  |
| CC(=O)N[C@@H](Cc1c[nH]cn1)C(=O)N[C@H](Cc1ccccc1)C(=O)N[C@@H](CCCNC(=N)N)C(=O)N[C@H](Cc1c[nH]c2ccccc12)C(=O)NCC(N)=O [EX-5, Ac-His-(D)Phe-Arg-(D)Trp-Gly-NH2] (Ac-H[dF]R[dW]G-NH2) |  |  | 44 | increase in survival (LPS-induced lethality) (adult female Balb/c mice [5]; 3.3 mg total (300 μg every 4 hr for 40 hr)): 63% and 44% |
| CC(=O)N[C@@H](Cc1c[nH]cn1)C(=O)N[C@H](Cc1ccccc1)C(=O)N[C@@H](CCCNC(=N)N)C(=O)N[C@H](Cc1c[nH]c2ccccc12)C(N)=O [EX-6, Ac-His-(D)Phe-Arg-(D)Trp-NH2] |  |  |  | increase in survival (LPS-induced lethality) (adult female Balb/c mice [5]; 1.65 mg total (150 μg every 4 hr for 40 hr)): 68% |
